Test results from patent US10405547B2, “Substituted cyclic amides as herbicides” (FMC Corporation, priority 2015, dated 2019).

What was measured:
Format in all cases: in vivo
[1] = test system: barnyardgrass (Echinochloa crus-galli); test: Test A preemergence, barnyardgrass; conditions: 0 to 100 scale (0 no effect, 100 complete control)
In short: (§1)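 Greenhouse test: compounds in solvent with surfactant sprayed onto loam–sand soil after planting (preemergence) or onto plants 2-10 cm at the one- to two-leaf stage (postemergence). Injury visually rated versus untreated controls after about 10 days on a 0-100 scale (100 = complete control).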

kochia (Kochia scoparia) [2] = test: Test A preemergence, kochia; conditions: 0 to 100 scale (0 no effect, 100 complete control)
In short: as §1

[3] = test system: ragweed (common ragweed, Ambrosia elatior); test: Test A preemergence, ragweed; conditions: 0 to 100 scale (0 no effect, 100 complete control)
In short: as §1

[4] = test system: ryegrass, Italian (Lolium multiflorum); test: Test A preemergence, Italian ryegrass; conditions: 0 to 100 scale (0 no effect, 100 complete control)
In short: as §1

[5] = test system: foxtail, giant (Setaria faberii); test: Test A preemergence, giant foxtail; conditions: 0 to 100 scale (0 no effect, 100 complete control)
In short: as §1

[6] = test system: pigweed (Amaranthus retroflexus); test: Test A preemergence, pigweed; conditions: 0 to 100 scale (0 no effect, 100 complete control)
In short: as §1

[7] = test system: barnyardgrass (Echinochloa crus-galli); test: Test A postemergence, barnyardgrass; conditions: visual injury, 0 to 100 scale (0 no effect, 100 complete control), approximately 10 days
In short: as §1

kochia (Kochia scoparia) [8] = test: Test A postemergence, kochia; conditions: visual injury, 0 to 100 scale (0 no effect, 100 complete control), approximately 10 days
In short: as §1

[9] = test system: ragweed (common ragweed, Ambrosia elatior); test: Test A postemergence, ragweed; conditions: visual injury, 0 to 100 scale (0 no effect, 100 complete control), approximately 10 days
In short: as §1

[10] = test system: ryegrass, Italian (Lolium multiflorum); test: Test A postemergence, Italian ryegrass; conditions: visual injury, 0 to 100 scale (0 no effect, 100 complete control), approximately 10 days
In short: as §1

[11] = test system: foxtail, giant (Setaria faberii); test: Test A postemergence, giant foxtail; conditions: visual injury, 0 to 100 scale (0 no effect, 100 complete control), approximately 10 days
In short: as §1

[12] = test system: pigweed (Amaranthus retroflexus); test: Test A postemergence, pigweed; conditions: visual injury, 0 to 100 scale (0 no effect, 100 complete control), approximately 10 days
In short: as §1

[13] = test system: blackgrass (Alopecurus myosuroides); test: Test A postemergence, blackgrass; conditions: visual injury, 0 to 100 scale (0 no effect, 100 complete control), approximately 10 days
In short: as §1

[14] = test system: galium (catchweed bedstraw, Galium aparine); test: Test A postemergence, galium; conditions: visual injury, 0 to 100 scale (0 no effect, 100 complete control), approximately 10 days
In short: as §1

[15] = test system: wheat (Triticum aestivum); test: Test A postemergence, wheat; conditions: visual injury, 0 to 100 scale (0 no effect, 100 complete control), approximately 10 days
In short: as §1

corn (Zea mays) = test: Test A postemergence, corn; conditions: visual injury, 0 to 100 scale (0 no effect, 100 complete control), approximately 10 days
In short: as §1

rice (Oryza sativa) = test: Test B flooded paddy test, rice; conditions: applied to paddy water, visual rating after 13 to 15 days, scale 0 (no effect) to 100 (complete control)
In short: (§2)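 Pots were flooded to 3 cm above the soil surface at treatment, compound applied directly to the paddy water, and that depth held throughout. Plants were kept in a greenhouse for 13 to 15 days, then visually rated against untreated controls.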

[16] = test system: sedge, umbrella (small-flower umbrella sedge, Cyperus difformis); test: Test B flooded paddy test, umbrella sedge; conditions: applied to paddy water, visual rating after 13 to 15 days, scale 0 (no effect) to 100 (complete control)
In short: as §2

[17] = test system: ducksalad (Heteranthera limosa); test: Test B flooded paddy test, ducksalad; conditions: applied to paddy water, visual rating after 13 to 15 days, scale 0 (no effect) to 100 (complete control)
In short: as §2

[18] = test system: barnyardgrass (Echinochloa crus-galli); test: Test B flooded paddy test, barnyardgrass; conditions: applied to paddy water, visual rating after 13 to 15 days, scale 0 (no effect) to 100 (complete control)
In short: as §2

| Structure (SMILES) | Plant response rating, Barnyardgrass ([1]; 125 g ai/ha) | Plant response rating, Barnyardgrass ([1]; 500 g ai/ha) | Plant response rating, Kochia (kochia (Kochia scoparia) [2]; 125 g ai/ha) | Plant response rating, Kochia (kochia (Kochia scoparia) [2]; 500 g ai/ha) | Plant response rating, Ragweed ([3]; 125 g ai/ha) | Plant response rating, Ragweed ([3]; 500 g ai/ha) | Plant response rating, Ryegrass, Italian ([4]; 125 g ai/ha) | Plant response rating, Ryegrass, Italian ([4]; 500 g ai/ha) | Plant response rating, Foxtail, Giant ([5]; 125 g ai/ha) | Plant response rating, Foxtail, Giant ([5]; 500 g ai/ha) | Plant response rating, Pigweed ([6]; 125 g ai/ha) | Plant response rating, Pigweed ([6]; 500 g ai/ha) | Plant response rating, Barnyardgrass ([7]; 125 g ai/ha) | Plant response rating, Barnyardgrass ([7]; 500 g ai/ha) | Plant response rating, Kochia (kochia (Kochia scoparia) [8]; 125 g ai/ha) | Plant response rating, Kochia (kochia (Kochia scoparia) [8]; 500 g ai/ha) | Plant response rating, Ragweed ([9]; 125 g ai/ha) | Plant response rating, Ragweed ([9]; 500 g ai/ha) | Plant response rating, Ryegrass, Italian ([10]; 125 g ai/ha) | Plant response rating, Ryegrass, Italian ([10]; 500 g ai/ha) | also measured |
| --- | --- | --- | --- | --- | --- | --- | --- | --- | --- | --- | --- | --- | --- | --- | --- | --- | --- | --- | --- | --- | --- |
| O=C1NCC(c2cccc(OCc3ccco3)c2)C1C(=O)Nc1ccccc1C(F)(F)F (stereo not drawn) [Compound 2] | 0 | 30 | 0 | 0 | 0 | 0 | 0 | 0 | 0 | 20 | 0 | 0 | 0 | 0 | 0 | 0 | 0 | 0 | 0 | 10 | Plant response rating, Foxtail, Giant ([11]; 125 g ai/ha): 0; Plant response rating, Foxtail, Giant ([11]; 500 g ai/ha): 10; Plant response rating, Pigweed ([12]; 125 g ai/ha): 0; Plant response rating, Pigweed ([12]; 500 g ai/ha): 0; Plant response rating, Blackgrass ([13]; 125 g ai/ha): 0; Plant response rating, Blackgrass ([13]; 500 g ai/ha): 0; Plant response rating, Galium ([14]; 125 g ai/ha): 0; Plant response rating, Galium ([14]; 500 g ai/ha): 0; Plant response rating, Wheat ([15]; 125 g ai/ha): 0; Plant response rating, Wheat ([15]; 500 g ai/ha): 0; Plant response rating, Corn (corn (Zea mays); 125 g ai/ha): 0; Plant response rating, Corn (corn (Zea mays); 500 g ai/ha): 0; Plant response rating, Rice (Flood) (rice (Oryza sativa); 250 g ai/ha): 0; Plant response rating, Sedge, Umbrella (Flood) ([16]; 250 g ai/ha): 0; Plant response rating, Ducksalad (Flood) ([17]; 250 g ai/ha): 0; Plant response rating, Barnyardgrass (Flood) ([18]; 250 g ai/ha): 0 |
| O=C1NCC(c2cccc(Cn3ccc(C(F)(F)F)n3)c2)C1C(=O)Nc1ccc(F)cc1F (stereo not drawn) [Compound 24] | 0 | 0 | 0 | 0 | 0 | 0 | 0 | 0 | 0 | 0 | 0 | 0 | 0 | 0 | 0 | 0 | 0 | 0 | 0 | 0 | Plant response rating, Foxtail, Giant ([11]; 125 g ai/ha): 0; Plant response rating, Foxtail, Giant ([11]; 500 g ai/ha): 0; Plant response rating, Pigweed ([12]; 125 g ai/ha): 0; Plant response rating, Pigweed ([12]; 500 g ai/ha): 0; Plant response rating, Blackgrass ([13]; 125 g ai/ha): 0; Plant response rating, Blackgrass ([13]; 500 g ai/ha): 0; Plant response rating, Galium ([14]; 125 g ai/ha): 0; Plant response rating, Galium ([14]; 500 g ai/ha): 0; Plant response rating, Wheat ([15]; 125 g ai/ha): 0; Plant response rating, Wheat ([15]; 500 g ai/ha): 0; Plant response rating, Corn (corn (Zea mays); 125 g ai/ha): 0; Plant response rating, Corn (corn (Zea mays); 500 g ai/ha): 0; Plant response rating, Rice (Flood) (rice (Oryza sativa); 500 g ai/ha): 0; Plant response rating, Sedge, Umbrella (Flood) ([16]; 500 g ai/ha): 0; Plant response rating, Ducksalad (Flood) ([17]; 500 g ai/ha): 0; Plant response rating, Barnyardgrass (Flood) ([18]; 500 g ai/ha): 0 |
| O=C1NCC(c2cccc(Oc3ccccn3)c2)C1C(=O)Nc1ccc(F)c(F)c1F (stereo not drawn) [Compound 42] | 40 | 80 | 0 | 0 | 0 | 0 | 0 | 0 | 80 | 90 | 0 | 10 | 40 | 60 | 0 | 0 | 0 | 0 | 0 | 0 | Plant response rating, Foxtail, Giant ([11]; 125 g ai/ha): 50; Plant response rating, Foxtail, Giant ([11]; 500 g ai/ha): 70; Plant response rating, Pigweed ([12]; 125 g ai/ha): 0; Plant response rating, Pigweed ([12]; 500 g ai/ha): 0; Plant response rating, Blackgrass ([13]; 125 g ai/ha): 0; Plant response rating, Blackgrass ([13]; 500 g ai/ha): 0; Plant response rating, Galium ([14]; 125 g ai/ha): 0; Plant response rating, Galium ([14]; 500 g ai/ha): 30; Plant response rating, Wheat ([15]; 125 g ai/ha): 0; Plant response rating, Wheat ([15]; 500 g ai/ha): 0; Plant response rating, Corn (corn (Zea mays); 125 g ai/ha): 0; Plant response rating, Corn (corn (Zea mays); 500 g ai/ha): 0; Plant response rating, Rice (Flood) (rice (Oryza sativa); 500 g ai/ha): 0; Plant response rating, Sedge, Umbrella (Flood) ([16]; 500 g ai/ha): 0; Plant response rating, Ducksalad (Flood) ([17]; 500 g ai/ha): 80; Plant response rating, Barnyardgrass (Flood) ([18]; 500 g ai/ha): 0 |
| O=C1NCC(c2cccc(Oc3ccccn3)c2)C1C(=O)Nc1cccc(F)c1F (stereo not drawn) [Compound 68] | 20 | 50 | 0 | 0 | 0 | 0 | 0 | 0 | 60 | 90 | 0 | 0 | 10 | 40 | 0 | 0 | 0 | 0 | 0 | 0 | Plant response rating, Foxtail, Giant ([11]; 125 g ai/ha): 0; Plant response rating, Foxtail, Giant ([11]; 500 g ai/ha): 60; Plant response rating, Pigweed ([12]; 125 g ai/ha): 0; Plant response rating, Pigweed ([12]; 500 g ai/ha): 0; Plant response rating, Blackgrass ([13]; 125 g ai/ha): 0; Plant response rating, Blackgrass ([13]; 500 g ai/ha): 20; Plant response rating, Galium ([14]; 125 g ai/ha): 0; Plant response rating, Galium ([14]; 500 g ai/ha): 0; Plant response rating, Wheat ([15]; 125 g ai/ha): 0; Plant response rating, Wheat ([15]; 500 g ai/ha): 0; Plant response rating, Corn (corn (Zea mays); 125 g ai/ha): 0; Plant response rating, Corn (corn (Zea mays); 500 g ai/ha): 0; Plant response rating, Rice (Flood) (rice (Oryza sativa); 500 g ai/ha): 0; Plant response rating, Sedge, Umbrella (Flood) ([16]; 500 g ai/ha): 0; Plant response rating, Ducksalad (Flood) ([17]; 500 g ai/ha): 80; Plant response rating, Barnyardgrass (Flood) ([18]; 500 g ai/ha): 20 |
| CN1CC(c2cccc(Oc3ccc(F)cc3)c2)C(C(=O)Nc2cccc(F)c2F)C1=O (single isomer, unassigned) [Compound 46] | 70 | 80 | 0 | 20 | 0 | 30 | 20 | 80 | 90 | 90 | 40 | 70 | 90 | 90 | 40 | 60 | 0 | 0 | 0 | 30 | Plant response rating, Foxtail, Giant ([11]; 125 g ai/ha): 70; Plant response rating, Foxtail, Giant ([11]; 500 g ai/ha): 80; Plant response rating, Pigweed ([12]; 125 g ai/ha): 50; Plant response rating, Pigweed ([12]; 500 g ai/ha): 70; Plant response rating, Blackgrass ([13]; 125 g ai/ha): 0; Plant response rating, Blackgrass ([13]; 500 g ai/ha): 30; Plant response rating, Galium ([14]; 125 g ai/ha): 60; Plant response rating, Galium ([14]; 500 g ai/ha): 70; Plant response rating, Wheat ([15]; 125 g ai/ha): 0; Plant response rating, Wheat ([15]; 500 g ai/ha): 20; Plant response rating, Corn (corn (Zea mays); 125 g ai/ha): 40; Plant response rating, Corn (corn (Zea mays); 500 g ai/ha): 50; Plant response rating, Rice (Flood) (rice (Oryza sativa); 250 g ai/ha): 0; Plant response rating, Sedge, Umbrella (Flood) ([16]; 250 g ai/ha): 0; Plant response rating, Ducksalad (Flood) ([17]; 250 g ai/ha): 30; Plant response rating, Barnyardgrass (Flood) ([18]; 250 g ai/ha): 0 |
